Source: US20240385174A1, “METHOD FOR SCREENING SUBSTANCE THAT SUPPRESSES 4-METHYLACETOPHENONE ODOR, AND METHOD FOR SUPPRESSING 4-METHYL ACETOPHENONE ODOR” (AJINOMOTO CO., INC., priority 2022, published 2024)

Legend:
[1] = Test Example 4: sensory evaluation of lemon-derived degradation odor-masking effect (single compounds); format: in vivo; settings: score 0 to 10 (0 normal sample, 5 normal:degraded 1:1, 10 degraded sample); lemon beverage stored at 44° C. for 2 weeks; added ppm: decadienal 0.002, nonadienal 0.002, 2-methylbenzenethiol 0.165, S-(2-methyl-3-furyl) ethanethioate 0.120, piperine 6.667, nootkatone 10.000, sclareol 16.667; average of 2 experts
Protocol: A commercially available lemon beverage (Chelate Lemon W Lemon (Pokka Sapporo), stored under refrigeration after purchased) was used as a normal sample. This lemon beverage was stored at 44° C. for 2 weeks to generate a lemon-derived degradation odor and was used as a degraded sample. Evaluation samples were prepared by adding each of the compounds shown in Table 6 to the degraded sample at the concentrations shown in the same.
The lemon-derived degradation odor intensity was scored as 0 to 10 on the basis of the following evaluation criteria. […] On the basis of the lemon-derived degradation odor intensity, the lemon-derived degradation odor-masking effect was evaluated.
• 0: Lemon-derived degradation odor intensity of the normal sample • 5: Lemon-derived degradation odor intensity of a mixture of the normal sample and degraded sample (normal sample:degraded sample=1:1) • 10: Lemon-derived degradation odor intensity of the degraded sample

[2] = Test Example 3: sensory evaluation of citral-derived degradation odor-masking effect; format: in vivo; settings: score 0 to 10 (0 normal sample, 5 normal:degraded 1:1, 10 degraded sample); 100 ppm citral aqueous solution stored at 44° C. for two weeks; added ppm: decadienal 0.002, nonadienal 0.002, 2-methylbenzenethiol 0.165, S-(2-methyl-3-furyl) ethanethioate 0.120, piperine 6.667, nootkatone 10.000, sclareol 16.667; average of two experts
Protocol: A 100 ppm citral aqueous solution (stored under refrigeration after preparation) was used as a normal sample. This solution was stored at 44° C. for two weeks to generate a degraded odor derived from citral, and was used as a degraded sample. Evaluation samples were prepared by adding each of the compounds shown in Table 5 to the degraded sample at the concentrations shown in the same.
The citral-derived degradation odor intensity was scored as 0 to 10 on the basis of the following evaluation criteria. […] On the basis of the citral-derived degradation odor intensity, the citral-derived degradation odor-masking effect was evaluated.
• 0: Citral-derived degradation odor intensity of the normal sample • 5: Citral-derived degradation odor intensity of a mixture of the normal sample and degraded sample (normal sample:degraded sample=1:1) • 10: Citral-derived degradation odor intensity of the degraded sample

OR5P3 = biological target: T1, OR5P3 (Homo sapiens, UniProt Q8WZ94); experiment: Screening for OR5P3 antagonist (luciferase assay, 2-heptanone as receptor-activating substance); format: cell-based; settings: inhibition of OR5P3 response to 2-heptanone (1000 μM); test substance 0.3-100 μM; HEK293T cells expressing OR5P3
T1 construct: host or cells: HEK293T
T1 sequence (Q8WZ94 with tags, fused parts or gaps): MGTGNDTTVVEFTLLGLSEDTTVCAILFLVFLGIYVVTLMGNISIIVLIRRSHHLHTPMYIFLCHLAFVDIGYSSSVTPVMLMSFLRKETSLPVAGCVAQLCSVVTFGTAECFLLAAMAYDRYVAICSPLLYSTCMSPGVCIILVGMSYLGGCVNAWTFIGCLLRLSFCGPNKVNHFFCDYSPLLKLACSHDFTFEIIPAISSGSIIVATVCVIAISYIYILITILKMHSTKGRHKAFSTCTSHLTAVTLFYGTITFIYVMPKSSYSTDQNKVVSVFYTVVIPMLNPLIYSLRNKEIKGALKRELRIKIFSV
Protocol: The expression vector mixture was allowed to stand for 20 minutes in a laminar flow cabinet and then added to HEK293T cells inoculated in 10-cm petri dishes the day before (2.5 to 3.5×10^6 cells/10-cm petri dish). After incubation for 5 hours in an incubator maintained at 37° C. and 5% CO2, the HEK293T cells were inoculated into each well of a 96-well plate (BD) in a volume of 100 μl (2.5×10^6 cells/ml), and cultured overnight in an incubator maintained at 37° C. and 5% CO2. […] As a control, the same procedure was performed by using the empty vector Rho-pME18S instead of the expression vector for human olfactory receptor in the expression vector mixture to obtain culture of the HEK293T cells transfected with the empty vector Rho-pME18S (hereinafter also referred to as the “control cells”).
The medium was removed from the culture of HEK293T cells expressing OR5P3 obtained in the section <1-2> mentioned above, and 60 μl of a mixed solution of a test substance and 2-heptanone (containing 100 μM test substance and 1000 μM 2-heptanone) or 60 μl of a 2-heptanone solution (containing 1000 μM 2-heptanone) was added to obtain a reaction solution. The solutions were prepared by dissolving the substances in CD293 (Life Technologies, Inc.). The cells were incubated in a CO2 incubator at 37° C. for 3 hours so that the firefly luciferase gene was sufficiently expressed in the cells. The value of luminescence derived from firefly luciferase in the cells was measured and designated as “Luc value”. The value of luminescence derived from firefly luciferase was measured by using Dual-Go™ Luciferase Assay System (Promega) according to the operation manual of the product.
Receptor response inhibition ratio of the test substance was calculated as follows. The Luc value (Y) in the cells not stimulated with 2-heptanone was subtracted from the Luc value (X) in the cells stimulated with 2-heptanone alone. Similarly, the Luc value (Y) in the cells not stimulated with 2-heptanone was subtracted from the Luc value (Z) in the cells stimulated with a mixture of 2-heptanone and the test substance. The receptor response inhibition ratio of the test substance was calculated in accordance with the following equation using the increase in value of luminescence caused by stimulation with 2-heptanone alone (X Y) as the standard. The experiment was performed in duplicate, and an average value was obtained.
The concentration of the test substance was 0.3, 1, 3, 10, 30, or 100 μM. The response of the receptor to 2-heptanone (1000 μM) in the presence of each concentration of the test substance was measured and represented as the relative response intensity based on the response intensity of the receptor to 2-heptanone (1000 μM) observed in the absence of the test substance, which was taken as 100%.

olfactory receptor OR5P3 = biological target: T2, olfactory receptor OR5P3 (Homo sapiens, UniProt Q8WZ94); experiment: Luciferase reporter gene assay: response of human olfactory receptors to 4-methylacetophenone; format: cell-based
T2 construct: host or cells: HEK293T
T2 sequence (Q8WZ94 with tags, fused parts or gaps): T1 sequence (Q8WZ94 with tags, fused parts or gaps)
Excerpt: The genes for the 352 types of human olfactory receptors were purchased from TrueClone cDNA Clone Collection (OriGene). Fragments for subcloning of the 352 types of human olfactory receptor genes were amplified by PCR using primers designed on the basis of sequence information available in GenBank and the purchased human olfactory receptor genes as the templates. Each of the amplified fragments for subcloning of the genes was subcloned into the Rho-pME18S vector (K. Kajiya et al., Journal of Neuroscience. 15 Aug. 2001, 21 (16) 6018-6025) downstream of the Rho tag sequence using the EcoRI and XhoI sites to obtain 352 types of expression vectors for human olfactory receptors.
HEK293T cells expressing each of the 352 types of olfactory receptors were prepared by the following procedure. […]
The olfactory receptors expressed by HEK293T cells conjugate with Golf to activate adenylate cyclase, and thereby increase the amount of intracellular cAMP. In this example, the olfactory receptor response was measured by using a luciferase reporter gene assay, in which the increase in intracellular cAMP amount is monitored as an increase in firefly luciferase-derived luminescence. […] In addition, value of the luminescence derived from Renilla luciferase was used as an internal standard to correct errors caused by differences in gene transfer efficiency and cell number in each well. […]

| Evaluation score (lemon-derived degradation odor intensity) [1] | Evaluation score (citral-derived degradation odor intensity) [2] | IC50 (OR5P3) | Structure (SMILES) | other results |
| --- | --- | --- | --- | --- |
| 6 | 5 | – | CCCCC/C=C/C=C/C=O [trans, trans-2,4-Decadienal] | – |
| – | – | 2 µM | CCCCCCCCC(=O)NCc1ccc(O)c(OC)c1 [N-Vanillylnonanamide] | – |
| – | – | 49 µM | CC=Cc1ccc(OCc2ccccc2)c(OC)c1 [Benzyl isoeugenol] | – |
| – | – | 76 µM | Sc1cccs1 [2-Thiophenethiol] | – |
| 6 | 5.5 | 8.1 µM | C=C(C)[C@@H]1CCC2=CC(=O)C[C@@H](C)[C@]2(C)C1 [Nootkatone] | – |
| 8 | 8 | 46 µM | Cc1ccccc1S [2-Methylbenzenethiol] | – |
| – | – | – | CC(=O)c1ccc(C)cc1 [4-methylacetophenone] | response of olfactory receptor OR5P3 to 4-methylacetophenone (olfactory receptor activity) (olfactory receptor OR5P3; 300 μM and 30 μM 4-methylacetophenone, 352 types of human olfactory receptors expressed in HEK293T cells, FIGS. 1 and 2): OR5P3 showed a response; 4-methylacetophenone concentration dependency of the response of OR5P3 (fold increase) (olfactory receptor OR5P3; HEK293T cells expressing OR5P3, n=3, FIG. 3): concentration-dependent manner |
| 8 | 6 | – | O=C(/C=C/C=C/c1ccc2c(c1)OCO2)N1CCCCC1 [Piperine] | – |
| – | – | 17 µM | SCCc1ccccc1 [2-Phenylethanethiol] | – |
| – | – | 39 µM | c1coc(CSCc2ccco2)c1 [Difurfuryl sulfide] | – |
| 6 | 5.5 | – | C=C[C@](C)(O)CC[C@@H]1[C@@]2(C)CCCC(C)(C)[C@@H]2CC[C@@]1(C)O [Sclareol] | – |
| – | – | 65 µM | CC=C(C=O)c1ccccc1 [2-Phenyl-2-butenal] | – |
| – | – | 39 µM | SCc1cccs1 [2-Thiophenemethanethiol] | – |
| 6 | 6 | 45 µM | CC(=O)Sc1ccoc1C [S-(2-Methyl-3-furyl) ethanethioate] | – |
| – | – | 78 µM | CCC=CC=CC=O [2,4-Heptadienal] | – |
| – | – | 67 µM | CC(C)CC(O)Cc1ccccc1 (centres unmarked) | – |
| 7.5 | 7 | – | CCCC/C=C/C=C/C=O [trans, trans-2,4-Nonadienal] | – |

| Structure (SMILES) | Evaluation score (lemon-derived degradation odor intensity) [1] | Evaluation score (citral-derived degradation odor intensity) [2] | IC50 (OR5P3) | other results |
| --- | --- | --- | --- | --- |
| S=C=NCc1ccccc1 [Benzyl isothiocyanate] | – | – | 19 µM | – |
